Reference: patent US20200405794A1, “PHARMACEUTICAL COMPOSITION FOR PREVENTING OR TREATING CANCER […] AND H[…] EFFECTIVE COMPONENTS” (priority 2018, published 2020)

Columns and labels:
[1] = test system: 4T1 cancer cell line-implanted mice; assay: 4T1 I: tumor size in mouse breast cancer cell-implanted mice; format: in vivo, Balb/c mice; conditions: 10 days; OTS-412 1×10^7 pfu intratumorally once; hydroxyurea 30 mg/kg intraperitoneally once a day; n=4
[2] = test system: 4T1 cancer cell line-implanted mice; assay: 4T1 III: tumor size and survival with high-dose hydroxyurea; format: in vivo, Balb/c mice; conditions: 17 days; OTS-412 1×10^7 pfu intratumorally once; high-dose hydroxyurea 90 mg/kg intraperitoneally once a day
[3] = test system: NCI-H460 lung cancer cells-implanted mice; assay: Tumor size in human lung cancer cell (NCI-H460)-implanted mice; format: in vivo, Balb/c nu/nu mice; conditions: day 15; OTS-412 1×10^5 pfu twice (5 days apart); hydroxyurea 20 mg/kg once daily
[4] = test system: HCT-116 cancer cell line-implanted mice; assay: Tumor size in human colorectal cancer cell (HCT-116)-implanted mice; format: in vivo, Balb/c nu/nu mice; conditions: day 28; hydroxyurea only, once daily; n=5
[5] = day 21; OTS-412 1×10^7 pfu twice or hydroxyurea 30 mg/kg, each alone; n=10

## hydroxyurea
[1]
  tumor size increase: ~5 times
[2]
  tumor size increase: ~3.5 times
[3]
  tumor size increase: 9 times
[4]
  tumor size increase: 11 times
[5]
  body weight loss: around 10%
